Experiments:
LSD1 = target: T1, LSD1 (Homo sapiens, UniProt O60341); assay: LSD1 activity test (HTRF); format: biochemical; conditions: H3(1-21)K4 me1-biotin substrate, read-out: IC50, inhibitory activity on LSD1
T1 construct: purchased Active Motif 31432
Description: In this test, a homogeneous time resolved fluorescence (HTRF) technology was utilized, and the inhibitory activity of compounds on LSD1 was detected by adopting a two-step method. The first step was to incubate LSD1, compounds of different concentrations, and a biotin-labeled methylated polypeptide substrate (H3(1-21)K4 me1-biotin) at the room temperature for fixed time.
A corresponding solution with a 1000-fold final concentration was formed by dilution in a 384-well Source plate, and then Echo550 was used for transferring 10 nL to a 384-well reaction plate for being tested.
An inhibition percentage was calculated using a maximum value, a minimum value, and a signal value (maximum value: fluorescence intensity of 5 μL of 2× enzyme solution+5 μL of 2× substrate mixed solution+10 nL of 100% DMSO+10 μL of detection solution; minimum value: fluorescence intensity of 5 μL of 1× reaction solution+5 μL of 2× substrate mixed solution+10 nL of 100% DMSO+10 μL of detection solution; and signal value: fluorescence intensity of 5 μL of 2× enzyme solution+5 μL of 2× substrate mixed solution+10 nL of diluted compound to be tested+10 μL of detection solution), and a calculation formula was as follows: […]
Using a logarithm of the concentration as an X axis and the percentage inhibition rate as a Y axis, a dose-response curve was fitted using a formula log(inhibitor) vs. response-Variable slope (Four parameters) of analysis software Graphpad Prism 5 to obtain the IC50 value of each compound on the enzyme activity.

[1] = Pharmacokinetics of oral administration of rats; format: in vivo; conditions: male, rat, SD rats, p.o. 5.0 mg/kg, plasma
Description: With SD rats as tested animals, blood drug concentrations in plasma at different moments after oral administration of the compounds of the present application by the rats in a clarification kit mode were determined using an LC-MS/MS method. Pharmacokinetic parameters of the compounds of the present application in the rats were obtained, and pharmacokinetic characteristics of the compounds were studied.
• SD rats, male, weight 180-220 g, 3 rats per group. The animals were fed in an animal house after being purchased, an adaptation period was at least 3 days, and they were used for tests after passing quarantine.
According to Table 4, each group of rats was given the corresponding tested drugs or positive drugs by gavage, before administration, and 15 min, 30 min, 1 h, 2 h, 4 h, 6 h, 8 h, and 24 h after administration, a fixed volume of blood was collected through eye sockets and placed in an EDTA-K2 anticoagulant tube, centrifuging was carried out at 8000 rpm for 1 min to separate plasma into a centrifuge tube, and the plasma was frozen in a −20° C. refrigerator.
The plasma at each time point stored at −20° C. was taken out, then acetonitrile was added, after whirling at 1500 revolutions for 2 min, centrifuging was carried out for 15 min (3500 r/min), and a fixed volume of solution supernatant was taken for LC-MS/MS analysis.
Non-compartment model fitting was carried out on pharmacokinetic behaviors of the tested compounds, and DAS3.31 software was adopted to calculate main pharmacokinetic parameters (T1/2, Tmax, Cmax, AUClast, etc.).

SMILES | IC50 (LSD1) [nM] | AUC(0-t) [1] [ng·h/mL] | Cmax [1] [ng/mL] | Tmax [1] [h] | half-life [1] [h]
COc1ccc(-c2c(C#N)cc(C3CCC(N)CC3)nc2-c2ccc(C#N)c(F)c2)cc1F (stereo not shown) [Compound 14, 6-(4-aminocyclohexyl)-2-(4-cyano-3-fluorophenyl)-3-(3-fluoro-4-methoxyphenyl)isonicotinonitrile] | 8.9 | 1470 ± 44.6 | 130 ± 7.9 | 4.67 ± 2.31 | 5.97 ± 0.29
COc1ccc(-c2c(C#N)cc(N3CCCNCC3)nc2-c2ccc(C#N)c(F)c2)cc1F [Compound 15, 2-(4-cyano-3-fluorophenyl)-6-(1,4-diazacyclohepta-1-yl)-3-(3-fluoro-4-methoxyphenyl)isonicotinonitrile] | 2 | 1550 ± 252 | 125 ± 25.8 | 6 | 5.73 ± 0.8
CN(C)C(=O)c1cc(-c2ccc3c(cnn3C)c2)c(-c2ccc(C#N)c(F)c2)nc1N1CCCNCC1 [Compound 27, 6-(4-cyano-3-fluorophenyl)-2-(1,4-diazaniline-1-yl)-N,N-dimethyl-5-(1-methyl-1H-indazol-5-yl)nicotinamide] | 3.3 | – | – | – | –
Cn1ncc2cc(-c3cc(C(=O)NC4CC4)c(N4CCCNCC4)nc3-c3ccc(C#N)c(F)c3)ccc21 [Compound 28] | 2.3 | – | – | – | –
COc1ccc(-c2c(-c3ccc(C#N)c(F)c3)nc(N3CCC(N)CC3)c3c2CNC3=O)cc1F [Compound 3, 4-(4-(4-aminopiperid-1-yl)-7-(3-fluoro-4-methoxyphenyl)-3-oxo-2,3-dihydro-1H-pyrrole[3,4-c]pyrid-6-yl)-2-fluorobenzonitrile] | 5.8 | – | – | – | –
CN1C(=O)C(F)(F)c2cc(-c3c(C#N)cc(N4CCC(N)CC4)nc3-c3ccc(C#N)c(F)c3)ccc21 [Compound 34, 6-(4-aminopiperid-1-yl)-2-(4-cyano-3-fluorophenyl)-3-(3,3-difluoro-1-methyl-2-oxoindol-5-yl)isonicotinonitrile] | 1.5 | – | – | – | –
Cn1ncc2cc(-c3c(C#N)cc(N4CCCNCC4)nc3-c3ccc(C#N)c(F)c3)ccc21 [Compound 20, 2-(4-cyano-3-fluorophenyl)-6-(1,4-diazaniline-1-yl)-3-(1-methyl-1H-indazol-5-yl)isonicotinonitrile] | 1.4 | 1410 ± 293 | 126 ± 23.9 | 4.67 ± 1.15 | 4.66 ± 0.73
Cn1ncc2cc(-c3cc(C(N)=O)c(N4CCC(N)CC4)nc3-c3ccc(C#N)c(F)c3)ccc21 [Compound 11, 2-(4-aminopiperid-1-yl)-6-(4-cyano-3-fluorophenyl)-5-(1-methyl-1H-indazol-5-yl)nicotinamide] | 1.5 | – | – | – | –
CC(C)(O)Cn1ncc2cc(-c3c(-c4ccc(C#N)c(F)c4)nc(N4CCC(N)CC4)c4c3CNC4=O)c(F)cc21 [Compound 9, 4-(4-(4-aminopiperid-1-yl)-7-(6-fluoro-1-(2-hydroxyl-2-methylpropyl)-1H-indazol-5-yl)-3-oxo-2,3-dihydro-1H-pyrrole[3,4-c]pyrid-6-yl)-2-fluorobenzonitrile] | 0.72 | – | – | – | –
Cn1ncc2cc(-c3c(C(N)=O)cc(N4CCC(N)CC4)nc3-c3ccc(C#N)c(F)c3)ccc21 [Compound 10, 6-(4-aminopiperid-1-yl)-2-(4-cyano-3-fluorophenyl)-3-(1-methyl-1H-indazol-5-yl)isonicotinamide] | 0.81 | – | – | – | –
COc1ccc(-c2c(C(N)=O)cc(N3CCC(N)CC3)nc2-c2ccc(C#N)c(F)c2)cc1F [Compound 2, 6-(4-aminopiperid-1-yl)-2-(4-cyano-3-fluorophenyl)-3-(3-fluoro-4-methoxyphenyl)isonicotinamide] | 4.8 | – | – | – | –
Cc1noc2cc(-c3c(C#N)cc(N4CCC(N)CC4)nc3-c3ccc(C#N)c(F)c3)c(F)cc12 [Compound 33, 6-(4-aminopiperid-1-yl)-2-(4-cyano-3-fluorophenyl)-3-(5-fluoro-3-tolueno[d]isoxazol-6-yl)isonicotinonitrile] | 0.34 | – | – | – | –
COc1ccc(-c2c(C#N)cc(N3CCC4(CC3)CNC4)nc2-c2ccc(C#N)c(F)c2)cc1F [Compound 22, 2-(4-cyano-3-fluorophenyl)-3-(3-fluoro-4-methoxyphenyl)-6-(2,7-diazaspiro[3.5]non-7-yl)isonicotinonitrile] | 6.2 | – | – | – | –
Cn1ncc2cc(-c3cc(C(N)=O)c(N4CCCNCC4)nc3-c3ccc(C#N)c(F)c3)ccc21 [Compound 26, 6-(4-cyano-3-fluorophenyl)-2-(1,4-diaza-1-yl)-5-(1-methyl-1H-indazol-5-yl)nicotinamide] | 2.9 | – | – | – | –
Cn1ncc2cc(-c3cc(C#N)c(N4CCC(N)CC4)nc3-c3ccc(C#N)c(F)c3)ccc21 [Compound 12, 2-(4-aminopiperid-1-yl)-6-(4-cyano-3-fluorophenyl)-5-(1-methyl-1H-indazol-5-yl)nicotinonitrile] | 4.4 | – | – | – | –
COc1ccc(-c2c(C#N)cc(N3CCC4(CCNC4)CC3)nc2-c2ccc(C#N)c(F)c2)cc1F [Compound 29, 2-(4-cyano-3-fluorophenyl)-3-(3-fluoro-4-methoxyphenyl)-6-(2,8-diazaspiro[4.5]dec-8-yl)isonicotinonitrile] | 3.4 | – | – | – | –
CC(C)(O)C(F)(F)c1ccc(-c2c(C#N)cc(N3CCC(N)CC3)nc2-c2ccc(C#N)c(F)c2)c(F)c1 [Compound 35, 6-(4-aminopiperid-1-yl)-2-(4-cyano-3-fluorophenyl)-3-(4-(1,1-difluoro-2-hydroxyl-2-methylpropyl)-2-fluorophenyl)isonicotinonitrile] | 2.2 | – | – | – | –
COc1ccc(-c2c(C#N)cc(N3CCC(N)CC3)nc2-c2ccc(C#N)c(F)c2)cc1F [Compound 1, 6-(4-aminopiperid-1-yl)-2-(4-cyano-3-fluorophenyl)-3-(3-fluoro-4-methoxyphenyl)isonicotinonitrile] | 2.1 | 1300 ± 411 | 93.9 ± 19.1 | 6 | 7.64 ± 2.46
CC(C)(O)Cc1ccc(-c2c(C#N)cc(N3CCC(N)CC3)nc2-c2ccc(C#N)c(F)c2)c(F)c1 [Compound 19, 6-(4-aminopiperid-1-yl)-2-(4-cyano-3-fluorophenyl)-3-(2-fluoro-4-(2-hydroxyl-2-methylpropyl)phenyl)isonicotinonitrile] | 3.1 | – | – | – | –
CC(C)(O)Cn1ncc2cc(-c3c(C(N)=O)cc(N4CCC(N)CC4)nc3-c3ccc(C#N)c(F)c3)c(F)cc21 [Compound 17, 6-(4-aminopiperid-1-yl)-2-(4-cyano-3-fluorophenyl)-3-(6-fluoro-1-(2-hydroxyl-2-methylpropyl)-1H-indazol-5-yl)isonicotinamide] | 1.2 | – | – | – | –
Cn1ncc2cc(-c3c(-c4ccc(C#N)c(F)c4)nc(N4CCC(N)CC4)c4c3CNC4=O)ccc21 [Compound 8, 4-(4-(4-aminopiperid-1-yl)-7-(1-methyl-1H-indazol-5-yl)-3-oxo-2,3-dihydro-1H-pyrrole[3,4-c]pyrid-6-yl)-2-fluorobenzonitrile] | 6.5 | – | – | – | –
